Data taken from article PMC10600239, “Selective MCL-1 inhibitor ABBV-467 is efficacious in tumor models but is associated with cardiac troponin increases in patients” (Communications Medicine, 2023).
Several values for one entry are separate records, joined by “and”; a condition that tells them apart may be missing. Equal entries are not always repeated.

Columns and labels:
[1] = Phase 1 first-in-human study (NCT04178902): efficacy (IMWG criteria, immunoglobulin, free light chain); type: in vivo; conditions: for Kappa Lt Chain,Free/Lambda Lt Chain,Free / Immunoglobulin G: patient; for Kappa Lt Chain,Free/Lambda Lt Chain,Free: normal range 0.22-1.52; for Immunoglobulin G: normal range 5.65-17.65
Description: This FIH study (NCT04178902) for ABBV-467 was a multicenter, open-label, dose-escalation study enrolling patients aged ≥18 years who had R/R MM, with the option to enroll R/R AML once recommended phase 2 dose (RP2D) was established. The study design was originally planned to consist of 2 parts: dose escalation and dose expansion, including a minimum of 6 patients treated during dose escalation at what was ultimately to be declared the RP2D. Patients must have received 3 or more prior lines of therapy including at least 1 or more immunomodulatory agents, 1 or more proteasome inhibitors, and 1 or more anti-CD38 monoclonal antibodies. Other eligibility criteria included: Eastern Cooperative Oncology Group performance status ≤2, measurable disease as defined by International Myeloma Working Group (IMWG) consensus criteria, an echocardiogram with an ejection fraction ≥50%, and adequate hematologic, hepatic, and renal function. The prespecified primary objectives were to characterize the safety and toxicity profiles, to establish the RP2D, and to determine the pharmacokinetic (PK) profile of ABBV-467 monotherapy. Safety evaluations included, but were not limited to, adverse event (AE) monitoring, physical examinations, vital sign measurements, electrocardiogram (ECG), cardiac enzyme monitoring, and clinical laboratory testing (hematology and chemistry) as a measure of safety and tolerability for the entire study duration. Parameters used to determine PK included maximum observed plasma concentration (Cmax), terminal elimination half-life (t1/2), area under the plasma concentration-time curve (AUC) from time 0 to time of last measurable concentration (AUCt), AUC from time 0 to infinity (AUC0-∞), and clearance using non-compartmental methods. Secondary objectives were preliminary evaluation of the efficacy of ABBV-467 in R/R MM and R/R AML. Preliminary efficacy endpoints were overall response rate (ORR), clinical benefit rate (CBR), and duration of response (DOR) as evaluated per adapted IMWG[36] criteria for MM and per adapted International Working Group (IWG)[37] and European Leukemia Net (ELN)[38] criteria for AML.

[2] = Phase 1 first-in-human study (NCT04178902): pharmacokinetics; type: in vivo
Description: Other eligibility criteria included: Eastern Cooperative Oncology Group performance status ≤2, measurable disease as defined by International Myeloma Working Group (IMWG) consensus criteria, an echocardiogram with an ejection fraction ≥50%, and adequate hematologic, hepatic, and renal function. […] Safety evaluations included, but were not limited to, adverse event (AE) monitoring, physical examinations, vital sign measurements, electrocardiogram (ECG), cardiac enzyme monitoring, and clinical laboratory testing (hematology and chemistry) as a measure of safety and tolerability for the entire study duration. Parameters used to determine PK included maximum observed plasma concentration (Cmax), terminal elimination half-life (t1/2), area under the plasma concentration-time curve (AUC) from time 0 to time of last measurable concentration (AUCt), AUC from time 0 to infinity (AUC0-∞), and clearance using non-compartmental methods. […] Preliminary efficacy endpoints were overall response rate (ORR), clinical benefit rate (CBR), and duration of response (DOR) as evaluated per adapted IMWG[36] criteria for MM and per adapted International Working Group (IWG)[37] and European Leukemia Net (ELN)[38] criteria for AML. […]

[3] = Cycle 1 day 1, dose level 0.32 mg/kg (only half of this dose given), N=2, individual values
[4] = Cycle 1 day 15, 0.32 mg/kg, N=2, individual values

Cc1c(Cl)c2c(Cl)c(C)c1-c1c(-c3ccc(F)cc3)sc3ncnc(c13)O[C@@H](C(=O)O)Cc1cc(ccc1OCc1ccnc(-c3ccc(OC[C@H]4COCCO4)cc3)n1)OC[C@@H](CN1CCN(C)CC1)O2 [ABBV-467]
duration of stable disease ([1]; 1 patient, […] dose level): approximately 8 months
objective responses ([1]; 8 patients with R/R MM): No objective responses
Kappa Lt Chain,Free/Lambda Lt Chain,Free ([1]; LBDY 1): 31.35 RATIO
Immunoglobulin G ([1]; LBDY 1): 28.1 g/L
Kappa Lt Chain,Free/Lambda Lt Chain,Free ([1]; LBDY 29): 25.56 RATIO
Immunoglobulin G ([1]; LBDY 29): 26.9 g/L
Kappa Lt Chain,Free/Lambda Lt Chain,Free ([1]; LBDY 57): 23.38 RATIO
Immunoglobulin G ([1]; LBDY 57): 23.3 g/L
Kappa Lt Chain,Free/Lambda Lt Chain,Free ([1]; LBDY 85): 6.92 RATIO
Immunoglobulin G ([1]; LBDY 85): 28.9 g/L
Kappa Lt Chain,Free/Lambda Lt Chain,Free ([1]; LBDY 115): 6.82 RATIO
Immunoglobulin G ([1]; LBDY 115): 30.6 g/L
Kappa Lt Chain,Free/Lambda Lt Chain,Free ([1]; LBDY 143): 7.51 RATIO
Immunoglobulin G ([1]; LBDY 143): 29.6 g/L
Kappa Lt Chain,Free/Lambda Lt Chain,Free ([1]; LBDY 171): 8.26 RATIO
Immunoglobulin G ([1]; LBDY 171): 24.4 g/L
Kappa Lt Chain,Free/Lambda Lt Chain,Free ([1]; LBDY 199): 3.99 RATIO
Immunoglobulin G ([1]; LBDY 199): 40.2 g/L
Kappa Lt Chain,Free/Lambda Lt Chain,Free ([1]; LBDY 227): 5.42 RATIO
Immunoglobulin G ([1]; LBDY 227): 29.5 g/L
Kappa Lt Chain,Free/Lambda Lt Chain,Free ([1]; LBDY 238): 8.01 RATIO
Immunoglobulin G ([1]; LBDY 238): 32.9 g/L
Kappa Lt Chain,Free/Lambda Lt Chain,Free ([1]; LBDY -6): 31.47 RATIO
Immunoglobulin G ([1]; LBDY -6): 23.8 g/L
CONC_NGML ([2]; Cycle 1 Day 1, DOSE_MGKG 0.08, cohort 1, PKTIME 0.333333): 157 ng/mL and 146 ng/mL
CONC_NGML ([2]; Cycle 1 Day 1, DOSE_MGKG 0.08, cohort 1, PKTIME 0.5): 198 ng/mL and 162 ng/mL
CONC_NGML ([2]; Cycle 1 Day 1, DOSE_MGKG 0.16, cohort 2, PKTIME 0.5): 344 ng/mL
CONC_NGML ([2]; Cycle 1 Day 1, DOSE_MGKG 0.16, cohort 2, PKTIME 1): 21.9 ng/mL
CONC_NGML ([2]; Cycle 1 Day 1, DOSE_MGKG 0.16, cohort 2, PKTIME 1.5): 17 ng/mL
CONC_NGML ([2]; Cycle 1 Day 1, DOSE_MGKG 0.16, cohort 2, PKTIME 2.5): 6.62 ng/mL
CONC_NGML ([2]; Cycle 1 Day 1, DOSE_MGKG 0.265, cohort 3, PKTIME 0.333333): 655 ng/mL and 470 ng/mL
CONC_NGML ([2]; Cycle 1 Day 1, DOSE_MGKG 0.265, cohort 3, PKTIME 0.5): 708 ng/mL and 613 ng/mL
CONC_NGML ([2]; Cycle 1 Day 1, DOSE_MGKG 0.265, cohort 3, PKTIME 1.5): 26.5 ng/mL and 26.6 ng/mL
CONC_NGML ([2]; Cycle 1 Day 1, DOSE_MGKG 0.265, cohort 3, PKTIME 2.5): 6.81 ng/mL and 11.1 ng/mL
CONC_NGML ([2]; Cycle 1 Day 15, DOSE_MGKG 0.16, cohort 1, PKTIME 0.333333): 297 ng/mL and 479 ng/mL
CONC_NGML ([2]; Cycle 1 Day 15, DOSE_MGKG 0.16, cohort 1, PKTIME 1): 46.8 ng/mL and 44.6 ng/mL
CONC_NGML ([2]; Cycle 1 Day 15, DOSE_MGKG 0.16, cohort 1, PKTIME 1.5): 14.6 ng/mL and 10.1 ng/mL
CONC_NGML ([2]; Cycle 1 Day 15, DOSE_MGKG 0.32, cohort 2, PKTIME 0.333333): 529 ng/mL
CONC_NGML ([2]; Cycle 1 Day 15, DOSE_MGKG 0.53, cohort 3, PKTIME 0.166667): 940 ng/mL
CONC_NGML ([2]; Cycle 1 Day 15, DOSE_MGKG 0.53, cohort 3, PKTIME 0.333333): 1430 ng/mL
CONC_NGML ([2]; Cycle 1 Day 15, DOSE_MGKG 0.53, cohort 3, PKTIME 0.5): 1510 ng/mL
CONC_NGML ([2]; Cycle 1 Day 15, DOSE_MGKG 0.53, cohort 3, PKTIME 1.5): 60.6 ng/mL
CONC_NGML ([2]; Cycle 1 Day 15, DOSE_MGKG 0.53, cohort 3, PKTIME 2.5): 26.3 ng/mL
CONC_NGML ([2]; Cycle 1 Day 15, DOSE_MGKG 0.53, cohort 3, PKTIME 4.5): 8.14 ng/mL
AUCinf [2, 3]: 309 ng·h/mL
AUCt [2, 3]: 306 ng·h/mL
CL [2, 3]: 8.62 mL/min/kg
Cmax [2, 3]: 344 ng/mL
t1/2 [2, 3]: 34.4 min
AUCinf [2, 4]: 940 ng·h/mL and 350 ng·h/mL
AUCt [2, 4]: 346 ng·h/mL and 933 ng·h/mL
CL [2, 4]: 5.67 mL/min/kg and 15.2 mL/min/kg
Cmax [2, 4]: 1720 ng/mL and 646 ng/mL
Tmax [2, 4]: 45.0 min
